Measured values published in US12391648B2, “Pyridyloxy thioester derivative and preparation method therefor, herbicidal composition, and application” (Qingdao Kingagroot Chemical Compound Co., Ltd., priority 2018, dated 2025).

Legend:
Format in all cases: in vivo
Galium spurium = assay: Post-emergence test experiment (Table 3, 1000 g/ha); details: post-emergence spray, after 3 weeks, fresh weight inhibition
In short: (§1)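 Weed seeds sown in soil-filled pots in greenhouse, sprayed at 2-3 leaf stage (2 weeks after sowing) with compound in acetone/tween-80 plus methyl oleate emulsible concentrate (1.5 L/ha) diluted in water. Fresh-weight growth inhibition scored after 3 weeks on 0-5 scale (5: >85%, 0: <5%).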

Leptochloa chinensis = assay: as above; details: post-emergence spray, after 3 weeks, fresh weight inhibition
In short: as §1

Abutilon theophrasti = assay: as above; details: post-emergence spray, after 3 weeks, fresh weight inhibition
In short: as §1

Monochoria vaginalis [1] = assay: as above; details: post-emergence spray, after 3 weeks, fresh weight inhibition
In short: as §1

Setaria viridis = assay: as above; details: post-emergence spray, after 3 weeks, fresh weight inhibition
In short: as §1

Digitaria sanguinalis = assay: as above; details: post-emergence spray, after 3 weeks, fresh weight inhibition
In short: as §1

Monochoria vaginalis [2] = assay: Weed control effect evaluation in rice field; details: 1000 g/ha, paddy water application at 0.5 leaf stage, 14 days after treatment, weeds resistant to pyrazosulfuron-ethyl and penoxsulam
Source text: (§2) The activity level standard of harmful plants destruction (i. e. growth inhibition rate) is as follows: • Level 5: the growth inhibition rate is greater than 85%; • Level 4: the growth inhibition rate is equal to or greater than 60% and less than 85%; • Level 3: the growth inhibition rate is equal to or greater than 40% and less than 60%; • Level 2: the growth inhibition rate is equal to or greater than 20% and less than 40%; • Level 1: the growth inhibition rate is equal to or greater than 5% and less than 20%; • Level 0: the growth inhibition rate is less than 5%;
(§3) Transplanted rice safety evaluation and weed control effect evaluation in rice field:
Rice field soil was loaded into a 1/1,000,000 ha pot. The seeds of Monochoria vaginalis were sowed and gently covered with soil, then left to stand still in greenhouse in the state of 0.5-1 cm of water storage. It was kept at 3-4 cm of water storage thereafter. The weeds were treated by dripping the WP or SC water diluents prepared according to the common preparation method of the compounds of the present invention with pipette homogeneously to achieve specified effective amount when Monochoria vaginalis reached 0. 5 leaf stage.
(§4) The fertility condition of Monochoria vaginalis 14 days and rice 21 days after the treatment of the compound of the invention with the naked eye.
Note: The seeds of Monochoria vaginalis were collected from Heilongjing Province of China.

rice (japonica rice) = assay: Transplanted rice safety evaluation; details: 1000 g/ha, transplanted 3-leaf stage japonica rice, treated 5 days after transplantation, 21 days after treatment
Source text: as §2, §3
In addition, the rice field soil that loaded into the 1/1,000,000 ha pot was leveled to keep water storage at 3-4 cm depth. The 3-leaf stage rice (japonica rice) was transplanted at 3 cm of transplanting depth the next day. The compound of the present invention was treated by the same way after 5 days of transplantation.
as §4

[3] = system: ALS resistant Cyperus iria; assay: Post-emergence test experiment (Table 4), weed control; details: 600 g/ha active ingredient, plus water 450 kg/ha, after 3 weeks
Source text: as §2
(§5) The above described growth inhibition rate is fresh weight inhibition rate.
(§6) Post-emergence test experiment: Monocotyledonous and dicotyledonous weed seeds and main crop seeds (i. e. wheat, corn, rice, soybean, cotton, oilseed, millet and sorghum.) were put into a plastic pot loaded with soil. Then covered with 0.5-2 cm soil, the seeds were allowed to grow in good greenhouse environment. The test plants were treated at 2-3 leaf stage 2 weeks after sowing. The test compounds of the invention were dissolved with acetone respectively, then added with tween-80, and using 1.5 liters per hectare of an emulsible concentrate of methyl oleate as a synergist, and diluted by certain amount of water to certain concentration. The solution was sprayed to the plants with a sprayer. Then the plants were cultured for 3 weeks in the greenhouse, and the experiment result of weed controlling effect after 3 weeks was listed in tables 3-4.
(§7) […] Echinochloa crusgalli and Cyperus iria were collected from Ningxia Hui Autonomous Region of China, which had evolved resistance to ALS inhibiting herbicides. • Control compound A:

[4] = system: ALS resistant Echinochloa crusgalli; assay: as above; details: 600 g/ha active ingredient, plus water 450 kg/ha, after 3 weeks
Source text: as §2, §5, §6, §7

Indica rice = assay: Post-emergence test experiment (Table 4), crop safety; details: 600 g/ha active ingredient, plus water 450 kg/ha, after 3 weeks
Source text: as §2, §5, §6, §7

Japonica rice = assay: as above; details: 600 g/ha active ingredient, plus water 450 kg/ha, after 3 weeks
Source text: as §2, §5, §6, §7

| Compound | Activity level (growth inhibition rate) Galium spurium (Galium spurium) | Activity level (growth inhibition rate) Leptochloa chinensis (Leptochloa chinensis) | Activity level (growth inhibition rate) Abutilon theophrasti (Abutilon theophrasti) | Activity level (growth inhibition rate) Monochoria Vaginalis (Monochoria vaginalis [1]) | Activity level (growth inhibition rate) Setaria viridis (Setaria viridis) | Activity level (growth inhibition rate) Digitaria sanguinalis (Digitaria sanguinalis) | Monochoria Vaginalis, activity standard level 0-5 (Monochoria vaginalis [2]) | Rice, activity standard level 0-5 (safety) (rice (japonica rice)) | ALS resistant Cyperus iria, activity level (growth inhibition rate) [3] | ALS resistant Echinochloa crusgalli, activity level (growth inhibition rate) [4] | Indica rice, activity level (growth inhibition rate) (Indica rice) | Japonica rice, activity level (growth inhibition rate) (Japonica rice) |
| --- | --- | --- | --- | --- | --- | --- | --- | --- | --- | --- | --- | --- |
| CCSC(=O)C(C)Oc1nc(F)c(Cl)c(N)c1Cl (stereo not drawn) [Compound 66] | 5 (Level 5: the growth inhibition rate is greater than 85%) | 5 (Level 5: the growth inhibition rate is greater than 85%) | 5 (Level 5: the growth inhibition rate is greater than 85%) | 5 (Level 5: the growth inhibition rate is greater than 85%) | 5 (Level 5: the growth inhibition rate is greater than 85%) | 5 (Level 5: the growth inhibition rate is greater than 85%) | 5 (Level 5: the growth inhibition rate is greater than 85%) | 0 (Level 0: the growth inhibition rate is less than 5%) | 5 (Level 5: the growth inhibition rate is greater than 85%) | 5 (Level 5: the growth inhibition rate is greater than 85%) | 0 (Level 0: the growth inhibition rate is less than 5%) | 0 (Level 0: the growth inhibition rate is less than 5%) |
| CCCCC(CC)CSC(=O)C(C)Oc1nc(F)c(Cl)c(N)c1Cl (stereo not drawn) [Compound 74] | 5 (Level 5: the growth inhibition rate is greater than 85%) | 5 (Level 5: the growth inhibition rate is greater than 85%) | 5 (Level 5: the growth inhibition rate is greater than 85%) | 5 (Level 5: the growth inhibition rate is greater than 85%) | 5 (Level 5: the growth inhibition rate is greater than 85%) | 5 (Level 5: the growth inhibition rate is greater than 85%) | 5 (Level 5: the growth inhibition rate is greater than 85%) | 0 (Level 0: the growth inhibition rate is less than 5%) | 5 (Level 5: the growth inhibition rate is greater than 85%) | 5 (Level 5: the growth inhibition rate is greater than 85%) | 0 (Level 0: the growth inhibition rate is less than 5%) | 0 (Level 0: the growth inhibition rate is less than 5%) |
| CC(Cl)CCSC(=O)C(C)Oc1nc(F)c(Cl)c(N)c1Cl (stereo not drawn) [Compound 77] | 5 (Level 5: the growth inhibition rate is greater than 85%) | 5 (Level 5: the growth inhibition rate is greater than 85%) | 5 (Level 5: the growth inhibition rate is greater than 85%) | 5 (Level 5: the growth inhibition rate is greater than 85%) | 5 (Level 5: the growth inhibition rate is greater than 85%) | 5 (Level 5: the growth inhibition rate is greater than 85%) | 5 (Level 5: the growth inhibition rate is greater than 85%) | 0 (Level 0: the growth inhibition rate is less than 5%) | 5 (Level 5: the growth inhibition rate is greater than 85%) | 5 (Level 5: the growth inhibition rate is greater than 85%) | 0 (Level 0: the growth inhibition rate is less than 5%) | 0 (Level 0: the growth inhibition rate is less than 5%) |
| CC(Oc1nc(F)c(Cl)c(N)c1Cl)C(=O)SCCCC(F)(F)F (stereo not drawn) [Compound 79] | 5 (Level 5: the growth inhibition rate is greater than 85%) | 5 (Level 5: the growth inhibition rate is greater than 85%) | 5 (Level 5: the growth inhibition rate is greater than 85%) | 5 (Level 5: the growth inhibition rate is greater than 85%) | 5 (Level 5: the growth inhibition rate is greater than 85%) | 5 (Level 5: the growth inhibition rate is greater than 85%) | 5 (Level 5: the growth inhibition rate is greater than 85%) | 0 (Level 0: the growth inhibition rate is less than 5%) | 5 (Level 5: the growth inhibition rate is greater than 85%) | 5 (Level 5: the growth inhibition rate is greater than 85%) | 0 (Level 0: the growth inhibition rate is less than 5%) | 0 (Level 0: the growth inhibition rate is less than 5%) |
| CC(Oc1nc(F)c(Cl)c(N)c1Cl)C(=O)SC1CCCCC1 (stereo not drawn) [Compound 82] | 5 (Level 5: the growth inhibition rate is greater than 85%) | 5 (Level 5: the growth inhibition rate is greater than 85%) | 5 (Level 5: the growth inhibition rate is greater than 85%) | 5 (Level 5: the growth inhibition rate is greater than 85%) | 5 (Level 5: the growth inhibition rate is greater than 85%) | 5 (Level 5: the growth inhibition rate is greater than 85%) | 5 (Level 5: the growth inhibition rate is greater than 85%) | 0 (Level 0: the growth inhibition rate is less than 5%) | 5 (Level 5: the growth inhibition rate is greater than 85%) | 5 (Level 5: the growth inhibition rate is greater than 85%) | 0 (Level 0: the growth inhibition rate is less than 5%) | 0 (Level 0: the growth inhibition rate is less than 5%) |
| CCCCOCCSC(=O)C(C)Oc1nc(F)c(Cl)c(N)c1Cl (stereo not drawn) [Compound 87] | 5 (Level 5: the growth inhibition rate is greater than 85%) | 5 (Level 5: the growth inhibition rate is greater than 85%) | 5 (Level 5: the growth inhibition rate is greater than 85%) | 5 (Level 5: the growth inhibition rate is greater than 85%) | 5 (Level 5: the growth inhibition rate is greater than 85%) | 5 (Level 5: the growth inhibition rate is greater than 85%) | 5 (Level 5: the growth inhibition rate is greater than 85%) | 0 (Level 0: the growth inhibition rate is less than 5%) | 5 (Level 5: the growth inhibition rate is greater than 85%) | 5 (Level 5: the growth inhibition rate is greater than 85%) | 0 (Level 0: the growth inhibition rate is less than 5%) | 0 (Level 0: the growth inhibition rate is less than 5%) |
